Experimental data: US9944740B2, “Sugar containing, amphiphilic copolymers” (REGENTS OF THE UNIVERSITY OF MINNESOTA, priority 2013, dated 2018)
Values after ≈ are worked out from the molar mass of the structure shown.

Columns and labels:
[1] = Phenytoin dissolution study (spray dried dispersions or crystalline API) in phosphate buffer pH 6.5 with simulated intestinal fluid powder, 37° C., HPLC; format: physicochemical; settings: crystalline phenytoin
Method: (§1) Samples (either spray dried dispersions or crystalline API as received) were weighed into 2.0 mL conical microcentrifuge tubes in duplicate. Phosphate buffer solution (82 mM sodium chloride, 20 mM sodium phosphate dibasic, 47 mM potassium phosphate monobasic, 0.5 wt % simulated intestinal fluid powder, pH 6.5) at 37° C. was added in an amount that would produce a final concentration of drug of 1000 mg/L if all material was fully dissolved (e.g., 7.2 mg of spray dried dispersion consisting of 1.8 mg griseofulvin and 5.4 mg polymer was diluted with 1.8 mL buffer solution). Samples were vortexed 1 min and set in an isothermal aluminum sample holder set at 37° C. At each time point, samples were centrifuged 1 min at >13,000×g (g=gravitational force on earth), and a 50 μl aliquot was removed and diluted with 250 μl methanol. The samples were again vortexed 30 s and held at 37° C. until the next time point. Drug concentration in each aliquot was determined by reverse phase HPLC.
Probucol and phenytoin concentrations were quantified using a Agilent 1260 Infinity Quaternary HPLC equipped. The HPLC consisted of a reversed-phase EC-C18 column (Poroshell 120, 4.6×50 mm, 2.7 μm, Agilent, USA). The mobile phase was acetonitrile: water 96:4 for probucol and acetonitrile: water 40:60 for phenytoin, and the flow rate was 1.0 mL/min. A 10 μL aliquot of sample was injected, and the column effluent was detected at 241 nm for probucol (eluted at 2.90 min) and 225 nm for phenytoin (eluted at 1.40 min) with a UV detector (1260 Infinity Multiple Wavelength Detector, Agilent). The standard curve linearity was verified from 0.1 to 1000 μg/mL with an r^2 value of at least 0.999.
Two different drugs, probucol and phenytoin, were formulated at different weight percent, using the polymers disclosed herein (see Table 1 for polymer sample numbers). […]

[2] = Probucol dissolution study (spray dried dispersions or crystalline API) in phosphate buffer pH 6.5 with simulated intestinal fluid powder, 37° C., HPLC; format: physicochemical; settings: pH 6.5, fassif, thermodynamic from solid
Method: as §1
Probucol and phenytoin concentrations were quantified using a Agilent 1260 Infinity Quaternary HPLC equipped. […] A 10 μL aliquot of sample was injected, and the column effluent was detected at 241 nm for probucol (eluted at 2.90 min) and 225 nm for phenytoin (eluted at 1.40 min) with a UV detector (1260 Infinity Multiple Wavelength Detector, Agilent). […]

O=C1NC(=O)C(c2ccccc2)(c2ccccc2)N1 [Phenytoin, phenytoin]
Concentration (phenytoin dissolution control) ([1]; Time 0): 0 ng/mL | Concentration (phenytoin dissolution control) ([1]; Time 4): 38000 ng/mL | Concentration (phenytoin dissolution control) ([1]; Time 10): 46000 ng/mL | Concentration (phenytoin dissolution control) ([1]; Time 20): 45000 ng/mL | Concentration (phenytoin dissolution control) ([1]; Time 40): 48000 ng/mL | Concentration (phenytoin dissolution control) ([1]; Time 90): 51000 ng/mL | Concentration (phenytoin dissolution control) ([1]; Time 180): 45000 ng/mL | Concentration (phenytoin dissolution control) ([1]; Time 360): 48000 ng/mL

CC(C)(Sc1cc(C(C)(C)C)c(O)c(C(C)(C)C)c1)Sc1cc(C(C)(C)C)c(O)c(C(C)(C)C)c1 [probucol]
solubility [2]: 4 µg/mL (≈ 7.74 µM)
